The source of these data is patent US8952128B2, “Somatostatin-dopamine chimeric analogs” (priority 2012, dated 2015).

Numbered stars: 1 amine (or outer) side, 2 acyl side, 3 side chain; on linkers, the order of the positions; unused ones are H or OH. Bridge positions count the residues as written; N and C are the ends. Square brackets hold non-standard residues; d marks the D form. Peptide text beside a SMILES is read from it. * marks the point of attachment. X1 = CN1C[C@H](CSCCN(CCSC[C@@H]2C[C@@H]3c4cccc5[nH]cc(c45)C[C@H]3N(C)C2)[C@H](CCCCN[*:2])C(=O)[*:1])C[C@@H]2c3cccc4[nH]cc(c34)C[C@H]21; X2 = CN1C[C@H](CSCC(=O)*)C[C@@H]2c3cccc4[nH]cc(c34)C[C@H]21; Phe(4-F) = N[C@@H](Cc1ccc(F)cc1)C(=O)O; 4Pal = N[C@@H](Cc1ccncc1)C(=O)O

This test deals with hSSTR2 (Homo sapiens (Human), UniProt P30874). As to the kind of experiment: Intracellular calcium mobilization assay (FLIPR Calcium 4), hSSTR2.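 As to all read-outs here: agonist activity read as intracellular calcium rise in cells expressing human SSTR2, loaded with a calcium-sensitive dye for 60 min at 37 °C, measured by FLIPR.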 In kind it is cell-based. As to conditions: for Emax: read-out: hSSTR2 % Emax ± SEM; for improvement in EC50 over Reference Compound A: Student's t-test, one-tailed, p <0.05. Background: A change in cytosolic calcium serves as a functional read-out for many receptors and channels.
hSSTR2, sequence (P30874 whole entry): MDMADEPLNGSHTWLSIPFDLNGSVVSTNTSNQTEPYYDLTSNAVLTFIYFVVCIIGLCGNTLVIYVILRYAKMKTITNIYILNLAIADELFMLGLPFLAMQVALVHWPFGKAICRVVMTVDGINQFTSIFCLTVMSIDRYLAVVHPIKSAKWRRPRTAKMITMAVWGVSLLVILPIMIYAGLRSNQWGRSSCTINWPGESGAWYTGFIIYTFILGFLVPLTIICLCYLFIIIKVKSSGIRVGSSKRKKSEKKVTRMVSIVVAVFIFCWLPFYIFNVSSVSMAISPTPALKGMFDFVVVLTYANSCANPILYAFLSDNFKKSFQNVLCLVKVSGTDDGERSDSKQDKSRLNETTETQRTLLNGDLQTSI

Experimental: The ability of select compounds according to the present invention to activate hSSTR2 and hDRD2 was determined by the intracellular calcium mobilization assay using FLIPR Calcium 4 assay kit (Molecular Devices).
Cells expressing hSSTR2 or hDRD2 were plated in 384-well microplates in tissue culture media and incubated for 16-24 hours at 37° C. in a humidified atmosphere with 5% CO2. Medium was replaced by loading buffer containing Hank's buffered saline, 20 mM HEPES, 2.5 mM probenecid and Calcium 4 dye, and the plates were incubated at 37° C. for 60 minutes.

The Emax is the greatest response seen or fitted, relative to the assay's reference. Take `CC(=O)N(CCCN(C(C)=O)[C@@H]1CCCCNC(=O)[C@H](Cc2ccc(F)cc2)NC(=O)[C@H]([C@@H](C)O)NC(=O)[C@H](CCCCN)NC(=O)[C@@H](Cc2c[nH]c3ccccc23)NC(=O)[C@H](Cc2ccccc2)NC(=O)[C@H](Cc2ccccc2)NC(=O)[C@H](CCCNC(=N)N)NC1=O)C[C@@H]1C[C@@H]2c3cccc4[nH]cc(c34)C[C@H]2N(C)C1` [Compound 28, 3-[N-acetyl-N-(D-6-methyl-8β-ergolinylmethyl)]-aminopropionyl-psi(CH2NAc)-cyclo(DLys-Arg-Phe-Phe-DTrp-Lys-Thr-4FPhe)]: the Emax stood at 98.7 ± 2%.
As to `C[C@@H](O)[C@@H]1NC(=O)[C@H](CCCCN)NC(=O)[C@@H](Cc2c[nH]c3ccccc23)NC(=O)[C@H](Cc2ccncc2)NC(=O)[C@H](Cc2ccccc2)NC(=O)[C@H](CCCNC(=N)N)NC(=O)[C@H](NCCSC[C@@H]2C[C@@H]3c4cccc5[nH]cc(c45)C[C@H]3N(C)C2)CCCCNC(=O)[C@H](Cc2ccccc2)NC1=O` [Compound 23, Dop1-psi(CH2NH)-cyclo(DLys-Arg-Phe-4Pal-DTrp-Lys-Thr-Phe)], the “improvement in EC50 over Reference Compound A” value is given as “statistically significant improvement” and the Emax came to 95.4 ± 3.3%.
In the case of `C[C@@H](O)[C@@H]1NC(=O)[C@H](CCCCN)NC(=O)[C@@H](Cc2c[nH]c3ccccc23)NC(=O)[C@H](Cc2ccccc2)NC(=O)[C@H](Cc2ccccc2)NC(=O)[C@H](CCCNC(=N)N)NC(=O)[C@H](N(CCSC[C@@H]2C[C@@H]3c4cccc5[nH]cc(c45)C[C@H]3N(C)C2)CCSC[C@@H]2C[C@@H]3c4cccc5[nH]cc(c45)C[C@H]3N(C)C2)CCCCNC(=O)[C@H](Cc2ccc(F)cc2)NC1=O` [Compound 39, bis[Dop1-psi(CH2N)]-cyclo(DLys-Arg-Phe-Phe-DTrp-Lys-Thr-4FPhe)] (RFF[dW]KT[Phe(4-F)]; linker N-C via X1), the Emax amounted to 87.1 ± 4.7%.
For the molecule `C[C@@H](O)[C@@H]1NC(=O)[C@H](CCCCN)NC(=O)[C@@H](Cc2c[nH]c3ccccc23)NC(=O)[C@H](Cc2ccccc2)NC(=O)[C@H](Cc2ccccc2)NC(=O)[C@H](CCCNC(=N)N)NC(=O)[C@H](NC[C@H](Cc2ccc(O)cc2)NC(=O)CS(=O)(=O)C[C@@H]2C[C@@H]3c4cccc5[nH]cc(c45)C[C@H]3N(C)C2)CCCCNC(=O)[C@H](Cc2ccc(F)cc2)NC1=O` [Compound 19, Dop1(SO2)-Tyr-psi(CH2NH)-cyclo(DLys-Arg-Phe-Phe-DTrp-Lys-Thr-4FPhe)], the Emax turned out to be 99.5 ± 1.8%.
Regarding `C[C@@H](O)[C@@H]1NC(=O)[C@H](CCCCN)NC(=O)[C@@H](Cc2c[nH]c3ccccc23)NC(=O)[C@H](Cc2ccncc2)NC(=O)[C@H](Cc2ccccc2)NC(=O)[C@H](CCCNC(=N)N)NC(=O)[C@H](NC[C@H](CCCCNC(=O)C[S+]([O-])C[C@@H]2C[C@@H]3c4cccc5[nH]cc(c45)C[C@H]3N(C)C2)NC(=O)C[S+]([O-])C[C@@H]2C[C@@H]3c4cccc5[nH]cc(c45)C[C@H]3N(C)C2)CCCCNC(=O)[C@H](Cc2ccc(O)cc2)NC1=O` (stereo partly drawn) [Compound 16, Dop1(SO)-Lys[Dop1(SO)]-psi(CH2NH)-cyclo(DLys-Arg-Phe-4Pal-DTrp-Lys-Thr-Tyr)], the Emax was 103 ± 2.3%.
Still for that read-out and setting: under `C[C@@H](O)[C@@H]1NC(=O)[C@H](CCCCN)NC(=O)[C@@H](Cc2c[nH]c3ccccc23)NC(=O)[C@H](Cc2ccncc2)NC(=O)[C@H](Cc2ccccc2)NC(=O)[C@H](CCCNC(=N)N)NC(=O)[C@H](NC[C@H](Cc2ccc(O)cc2)NC(=O)C[S+]([O-])C[C@@H]2C[C@@H]3c4cccc5[nH]cc(c45)C[C@H]3N(C)C2)CCCCNC(=O)[C@H](Cc2ccccc2)NC1=O` (stereo partly drawn) [Compound 15, Dop1(SO)-Tyr-psi(CH2NH)-cyclo(DLys-Arg-Phe-4Pal-DTrp-Lys-Thr-Phe)] stands 99.9 ± 1.9%; under `C[C@@H](O)[C@@H]1NC(=O)[C@H](CCCCN)NC(=O)[C@@H](Cc2c[nH]c3ccccc23)NC(=O)[C@H](Cc2ccccc2)NC(=O)[C@H](Cc2ccccc2)NC(=O)[C@H](CCCNC(=N)N)NC(=O)[C@@H](NC[C@H](Cc2ccc(O)cc2)NC(=O)CSC[C@@H]2C[C@@H]3c4cccc5[nH]cc(c45)C[C@H]3N(C)C2)CCCCNC(=O)[C@H](Cc2ccccc2)NC1=O` [Compound 31, Dop1-Tyr-psi(CH2NH)-cyclo(Lys-Arg-Phe-Phe-DTrp-Lys-Thr-Phe)], 85.1 ± 4.7%; under `C[C@@H](O)[C@@H]1NC(=O)[C@H](CCCCN)NC(=O)[C@@H](Cc2c[nH]c3ccccc23)NC(=O)[C@H](Cc2ccccc2)NC(=O)[C@H](Cc2ccccc2)NC(=O)[C@H](CCCNC(=N)N)NC(=O)[C@H](NCCCCC[C@@H]2C[C@@H]3c4cccc5[nH]cc(c45)C[C@H]3N(C)C2)CCCCNC(=O)[C@H](Cc2ccc(F)cc2)NC1=O` [Compound 3, (D-6-methyl-8β-ergolinyl)-pentanoyl-psi(CH2NH)-cyclo(DLys-Arg-Phe-Phe-DTrp-Lys-Thr-4FPhe)], 98.8 ± 19.2%.
`CC(=O)N(CCCNC[C@@H]1C[C@@H]2c3cccc4[nH]cc(c34)C[C@H]2N(C)C1)[C@@H]1CCCCNC(=O)[C@H](Cc2ccc(F)cc2)NC(=O)[C@H]([C@@H](C)O)NC(=O)[C@H](CCCCN)NC(=O)[C@@H](Cc2c[nH]c3ccccc23)NC(=O)[C@H](Cc2ccccc2)NC(=O)[C@H](Cc2ccccc2)NC(=O)[C@H](CCCNC(=N)N)NC1=O` [Compound 22, 3-[N-(D-6-methyl-8β-ergolinylmethyl)]-aminopropionyl-psi(CH2NAc)-cyclo(DLys-Arg-Phe-Phe-DTrp-Lys-Thr-4FPhe)]: the Emax was determined as 99.1 ± 12.6%.
`C[C@@H](O)[C@@H]1NC(=O)[C@H](CCCCN)NC(=O)[C@@H](Cc2c[nH]c3ccccc23)NC(=O)[C@H](Cc2ccccc2)NC(=O)[C@H](Cc2ccccc2)NC(=O)[C@H](CCCNC(=N)N)NC(=O)[C@H](NCCCC[C@@H]2C[C@@H]3c4cccc5[nH]cc(c45)C[C@H]3N(C)C2)CCCCNC(=O)[C@H](Cc2ccc(F)cc2)NC1=O` [Compound 2, (D-6-methyl-8β-ergolinyl)-butanoyl-psi(CH2NH)-cyclo(DLys-Arg-Phe-Phe-DTrp-Lys-Thr-4FPhe)]: the Emax was 100 ± 1.7%.
`C[C@@H](O)[C@@H]1NC(=O)[C@H](CCCCN)NC(=O)[C@@H](Cc2c[nH]c3ccccc23)NC(=O)[C@H](Cc2ccncc2)NC(=O)[C@H](Cc2ccccc2)NC(=O)[C@H](CCCNC(=N)N)NC(=O)[C@H](N(CCSC[C@@H]2C[C@@H]3c4cccc5[nH]cc(c45)C[C@H]3N(C)C2)CCSC[C@@H]2C[C@@H]3c4cccc5[nH]cc(c45)C[C@H]3N(C)C2)CCCCNC(=O)[C@H](Cc2ccccc2)NC1=O` [Compound 29, bis[Dop1-psi(CH2N)]-cyclo(DLys-Arg-Phe-4Pal-DTrp-Lys-Thr-Phe)] (RF[4Pal][dW]KTF; linker N-C via X1): the “improvement in EC50 over Reference Compound A” value is reported as “statistically significant improvement” and the maximal effect (Emax) came to 97 ± 4.9%.
As for `C[C@@H](O)[C@@H]1NC(=O)[C@H](CCCCN)NC(=O)[C@@H](Cc2c[nH]c3ccccc23)NC(=O)[C@H](Cc2ccccc2)NC(=O)[C@H](Cc2ccccc2)NC(=O)[C@H](CCCNC(=N)N)NC(=O)[C@H](NCCSC[C@@H]2C[C@@H]3c4cccc5[nH]cc(c45)C[C@H]3N(C)C2)CCCCNC(=O)[C@H](Cc2cccc(F)c2)NC1=O` [Compound 6C, Dop1-psi(CH2NH)-cyclo(DLys-Arg-Phe-Phe-DTrp-Lys-Thr-3FPhe)], the maximal response (Emax) was found to be 97.7 ± 6.9%.
Regarding `C[C@@H](O)[C@@H]1NC(=O)[C@H](CCCCN)NC(=O)[C@@H](Cc2c[nH]c3ccccc23)NC(=O)[C@H](Cc2ccncc2)NC(=O)[C@H](Cc2ccccc2)NC(=O)[C@H](CCCNC(=N)N)NC(=O)[C@H](NC(=O)CSC[C@@H]2C[C@@H]3c4cccc5[nH]cc(c45)C[C@H]3N(C)C2)CCCCNC(=O)[C@H](Cc2ccc(O)cc2)NC1=O` [Compound 25, Dop1-cyclo(DLys-Arg-Phe-4Pal-DTrp-Lys-Thr-Tyr)] (X2-[dK]RF[4Pal][dW]KTY; lactam 1-C), the “improvement in EC50 over Reference Compound A” value is given as “statistically significant improvement” and the Emax is 93.9 ± 6.7%.
Consider `C[C@@H](O)[C@@H]1NC(=O)[C@H](CCCCN)NC(=O)[C@@H](Cc2c[nH]c3ccccc23)NC(=O)[C@H](Cc2ccccc2)NC(=O)[C@H](Cc2ccccc2)NC(=O)[C@H](CCCNC(=N)N)NC(=O)[C@H](NC[C@H](Cc2ccc(O)cc2)NC(=O)CSC[C@@H]2C[C@@H]3c4cccc5[nH]cc(c45)C[C@H]3N(C)C2)CCCCNC(=O)[C@H](Cc2ccc(O)cc2)NC1=O` [Compound 33, Dop1-Tyr-psi(CH2NH)-cyclo(DLys-Arg-Phe-Phe-DTrp-Lys-Thr-Tyr)], for which the Emax is 95.7 ± 5.1%. Moreover, the “improvement in EC50 and/or % Emax over Reference Compound B” value (calcium mobilization) is “statistically significant improvement”.
In the case of `C[C@@H](O)[C@@H]1NC(=O)[C@H](CCCCN)NC(=O)[C@@H](Cc2c[nH]c3ccccc23)NC(=O)[C@H](Cc2ccccc2)NC(=O)[C@H](Cc2ccccc2)NC(=O)[C@H](CCCNC(=N)N)NC(=O)[C@H](NCCSC[C@@H]2C[C@@H]3c4cccc5[nH]cc(c45)C[C@H]3N(C)C2)CCCCNC(=O)[C@H](Cc2ccccc2)NC1=O` [Compound 26, Dop1-psi(CH2NH)-cyclo(DLys-Arg-Phe-Phe-DTrp-Lys-Thr-Phe)], the maximum response (Emax) amounted to 90.2 ± 12.6%.
Turning to `C[C@@H](O)[C@@H]1NC(=O)[C@H](CCCCN)NC(=O)[C@@H](Cc2c[nH]c3ccccc23)NC(=O)[C@H](Cc2ccccc2)NC(=O)[C@H](Cc2ccccc2)NC(=O)[C@H](CCCNC(=N)N)NC(=O)[C@H](NCC[S+]([O-])C[C@@H]2C[C@@H]3c4cccc5[nH]cc(c45)C[C@H]3N(C)C2)CCCCNC(=O)[C@H](Cc2ccc(F)cc2)NC1=O` (stereo partly drawn) [Compound 14, Dop1(SO)-psi(CH2NH)-cyclo(DLys-Arg-Phe-Phe-DTrp-Lys-Thr-4FPhe)], the Emax was 102 ± 2.2%.
